{
  "source": "patent US20240360126A1",
  "about": "“PYRAZOLO[3,4-B]PYRIDINE COMPOUNDS FOR THE TREATMENT OF AUTOIMMUNE DISEASE” (Hoffmann-La Roche Inc., priority 2021, published 2024)",
  "target": "T1, human TLR7 (Homo sapiens, UniProt Q9NYK1)",
  "T1 construct": "host or cells: HEK293 (HEK-Blue hTLR7)",
  "T1 sequence (Q9NYK1 27-1049)": "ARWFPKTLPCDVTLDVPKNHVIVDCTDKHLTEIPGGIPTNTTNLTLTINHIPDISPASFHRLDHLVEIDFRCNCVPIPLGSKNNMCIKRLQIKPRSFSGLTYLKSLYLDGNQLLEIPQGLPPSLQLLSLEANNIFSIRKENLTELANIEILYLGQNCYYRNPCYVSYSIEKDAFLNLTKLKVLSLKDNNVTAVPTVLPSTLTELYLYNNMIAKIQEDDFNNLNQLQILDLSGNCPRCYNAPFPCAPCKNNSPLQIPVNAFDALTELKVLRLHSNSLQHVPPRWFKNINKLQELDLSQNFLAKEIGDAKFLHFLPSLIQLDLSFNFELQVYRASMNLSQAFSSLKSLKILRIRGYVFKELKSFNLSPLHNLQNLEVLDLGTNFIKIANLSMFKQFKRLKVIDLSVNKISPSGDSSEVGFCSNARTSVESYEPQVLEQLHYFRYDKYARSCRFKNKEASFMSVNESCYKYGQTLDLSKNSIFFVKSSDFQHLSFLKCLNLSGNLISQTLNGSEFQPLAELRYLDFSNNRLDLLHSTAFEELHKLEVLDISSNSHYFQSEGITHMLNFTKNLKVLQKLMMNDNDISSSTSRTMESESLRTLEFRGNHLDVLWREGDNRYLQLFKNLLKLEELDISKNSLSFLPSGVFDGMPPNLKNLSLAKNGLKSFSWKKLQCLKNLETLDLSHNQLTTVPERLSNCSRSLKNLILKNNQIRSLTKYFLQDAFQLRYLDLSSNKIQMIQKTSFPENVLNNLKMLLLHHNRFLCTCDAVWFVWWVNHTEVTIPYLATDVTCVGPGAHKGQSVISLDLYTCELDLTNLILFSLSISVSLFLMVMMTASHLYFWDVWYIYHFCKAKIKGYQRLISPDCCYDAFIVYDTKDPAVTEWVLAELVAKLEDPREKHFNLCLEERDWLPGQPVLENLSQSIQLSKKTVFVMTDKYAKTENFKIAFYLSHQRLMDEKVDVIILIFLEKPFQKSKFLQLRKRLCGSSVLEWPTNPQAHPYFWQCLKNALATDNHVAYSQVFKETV",
  "experiment": "HEK293-Blue-hTLR-7 cells assay",
  "assay_type": "cell-based",
  "conditions": "HEK293-Blue-hTLR7 cells, R848 stimulation, 20 hrs; read-out: HEK/hTLR7 IC50",
  "source_text": "A stable HEK293-Blue-hTLR-7 cell line was purchased from InvivoGen (Cat. #: hkb-htlr7, San Diego, California, USA). These cells were originally designed for studying the stimulation of human TLR7 by monitoring the activation of NF-κB. A SEAP (secreted embryonic alkaline phosphatase) reporter gene was placed under the control of the IFN-β minimal promoter fused to five NF-κB and AP-1-binding sites. The SEAP was induced by activating NF-κB and AP-1 via stimulating HEK-Blue hTLR7 cells with TLR7 ligands. Therefore the reporter expression was declined by TLR7 antagonist under the stimulation of a ligand, such as R848 (Resiquimod), for incubation of 20 hrs. The cell culture supernatant SEAP reporter activity was determined using QUANTI-Blue™ kit (Cat. #: rep-qbl, Invivogen, San Diego, Ca, USA) at a wavelength of 640 nm, a detection medium that turns purple or blue in the presence of alkaline phosphatase.\nHEK293-Blue-hTLR7 cells were incubated at a density of 250,000-450,000 cells/mL in a volume of 170 μL in a 96-well plate in Dulbecco's Modified Eagle's medium (DMEM) containing 4.5 g/L glucose, 50 U/mL penicillin, […] streptomycin, […] Normocin, […] L-glutamine, 10% […] heat-inactivated fetal bovine serum with addition of 20 μL test compound in a serial dilution in the presence of final DMSO at 1% and 10 μL of 20 μM R848 in above DMEM, perform incubation under 37° C. in a CO2 incubator for 20 hrs. Then 20 μL of the supernatant from each well was incubated with 180 μL Quanti-blue substrate solution at 37° C. for 2 hrs and the absorbance was read at […] using a spectrophotometer. The signaling pathway that TLR7 activation leads to downstream NF-κB activation has been widely accepted, and therefore similar reporter assay was modified for evaluating TLR7 antagonist.",
  "data": [
    {"smiles": "Cc1cc(N2CCC(c3cnc(N4CCNCC4)nc3C)CC2)c2cnn(C)c2n1", "note": "[Example 11, 1,6-dimethyl-4-[4-(4-methyl-2-piperazin-1-yl-pyrimidin-5-yl)-1-piperidyl]pyrazolo[3,4-b]pyridine]", "values": [
      {"measurement": "IC50", "result": 37, "unit": "nM"}
    ]},
    {"smiles": "Cc1cc(N2CCC(c3ccc(N4CCNCC4)cc3)CC2)c2cnn(C)c2n1", "note": "[Example 1, 1,6-dimethyl-4-[4-(4-piperazin-1-ylphenyl)-1-piperidyl]pyrazolo[3,4-b]pyridine]", "values": [
      {"measurement": "IC50", "result": 53, "unit": "nM"}
    ]},
    {"smiles": "COC[C@H]1CN(c2ccc([C@H]3CCN(c4cc(C)nc5c4cnn5C)C[C@@H]3C)nc2)CCN1", "note": "[Example 37, 4-[(3R,4S)-4-[5-[(3R)-3-(methoxymethyl)piperazin-1-yl]-2-pyridyl]-3-methyl-1-piperidyl]-1,6-dimethyl-pyrazolo[3,4-b]pyridine]", "values": [
      {"measurement": "IC50", "result": 9, "unit": "nM"}
    ]},
    {"smiles": "Cc1cc(N2CC[C@H](c3ccc(N4CC5(CNCCO5)C4)cn3)[C@@H](C)C2)c2cnn(C)c2n1", "note": "[Example 38, 2-[6-[(3R,4S)-1-(1,6-dimethylpyrazolo[3,4-b]pyridin-4-yl)-3-methyl-4-piperidyl]-3-pyridyl]-5-oxa-2,8-diazaspiro[3.5]nonane]", "values": [
      {"measurement": "IC50", "result": 13, "unit": "nM"}
    ]},
    {"smiles": "Cc1cc(N2CCC(c3cnc(N4CCNCC4)cn3)CC2)c2cnn(C)c2n1", "note": "[Example 3, 1,6-dimethyl-4-[4-(5-piperazin-1-ylpyrazin-2-yl)-1-piperidyl]pyrazolo[3,4-b]pyridine]", "values": [
      {"measurement": "IC50", "result": 20, "unit": "nM"}
    ]},
    {"smiles": "Cc1cc(N2CC[C@@H](c3ncc(N4CCOC[C@@H](N)C4)cc3C)[C@H](C)C2)c2cnn(C)c2n1", "note": "[Example 28, (6S)-4-[6-[(3S,4R)-1-(1,6-dimethylpyrazolo[3,4-b]pyridin-4-yl)-3-methyl-4-piperidyl]-5-methyl-3-pyridyl]-1,4-oxazepan-6-amine]", "values": [
      {"measurement": "IC50", "result": 7, "unit": "nM"}
    ]},
    {"smiles": "Cc1cc(N2CCC(c3ncc(N4CCNCC4)nc3C)[C@H](C)C2)c2cnn(C)c2n1", "note": "(single isomer, unassigned) [Example 22, 1,6-dimethyl-4-[cis-3-methyl-4-(3-methyl-5-piperazin-1-yl-pyrazin-2-yl)-1-piperidyl]pyrazolo[3,4-b]pyridine]", "values": [
      {"measurement": "IC50", "result": 49, "unit": "nM"}
    ]},
    {"smiles": "COC[C@H]1CN(c2cnc([C@@H]3CCN(c4cc(C)nc5c4cnn5C)C[C@H]3C)c(C)c2)CCN1", "note": "[Example 29, 4-[(3S,4R)-4-[5-[(3R)-3-(methoxymethyl)piperazin-1-yl]-3-methyl-2-pyridyl]-3-methyl-1-piperidyl]-1,6-dimethyl-pyrazolo[3,4-b]pyridine]", "values": [
      {"measurement": "IC50", "result": 5, "unit": "nM"}
    ]},
    {"smiles": "CO[C@@H]1CN(c2ccc([C@H]3CCN(c4cc(C)nc5c4cnn5C)C[C@@H]3C)nc2)C[C@H]1N", "note": "[Example 36, (3R,4R)-1-[6-[(3R,4S)-1-(1,6-dimethylpyrazolo[3,4-b]pyridin-4-yl)-3-methyl-4-piperidyl]-3-pyridyl]-4-methoxy-pyrrolidin-3-amine]", "values": [
      {"measurement": "IC50", "result": 18, "unit": "nM"}
    ]},
    {"smiles": "Cc1cc(N2CCC(c3ncc(N4CCNCC4)cc3C)CC2)c2cnn(C)c2n1", "note": "[Example 7, 1,6-dimethyl-4-[4-(3-methyl-5-piperazin-1-yl-2-pyridyl)-1-piperidyl]pyrazolo[3,4-b]pyridine]", "values": [
      {"measurement": "IC50", "result": 11, "unit": "nM"}
    ]},
    {"smiles": "Cc1cc(N2CC[C@@H](c3ccc(N4CCNCC4)cn3)[C@H](C)C2)c2cnn(C)c2n1", "note": "[Example 34, 1,6-dimethyl-4-[(3S,4R)-3-methyl-4-(5-piperazin-1-yl-2-pyridyl)-1-piperidyl]pyrazolo[3,4-b]pyridine]", "values": [
      {"measurement": "IC50", "result": 82, "unit": "nM"}
    ]},
    {"smiles": "Cc1cc(N2CC[C@H](c3ccc(N4CCNCC4)cn3)[C@@H](C)C2)c2cnn(C)c2n1", "note": "[Example 35, 1,6-dimethyl-4-[(3R,4S)-3-methyl-4-(5-piperazin-1-yl-2-pyridyl)-1-piperidyl]pyrazolo[3,4-b]pyridine]", "values": [
      {"measurement": "IC50", "result": 6, "unit": "nM"}
    ]},
    {"smiles": "Cc1cc(N2CCC(c3ncc(N4CCNCC4)cc3C)[C@H](C)C2)c2cnn(C)c2n1", "note": "(single isomer, unassigned) [Example 25, 1,6-dimethyl-4-[trans-3-methyl-4-(3-methyl-5-piperazin-1-yl-2-pyridyl)-1-piperidyl]pyrazolo[3,4-b]pyridine]", "values": [
      {"measurement": "IC50", "result": 9, "unit": "nM"}
    ]},
    {"smiles": "Cc1cc(N2CCC(c3cnc(N4CCNCC4)cc3C)[C@H](C)C2)c2cnn(C)c2n1", "note": "(single isomer, unassigned) [Example 21, 1,6-dimethyl-4-[trans-3-methyl-4-(4-methyl-6-piperazin-1-yl-3-pyridyl)-1-piperidyl]pyrazolo[3,4-b]pyridine]", "values": [
      {"measurement": "IC50", "result": 16, "unit": "nM"}
    ]}
  ]
}
